Results reported in article PMC12703741, “Light-Activated Metal-Dependent Protein Degradation: A Heterobifunctional Ruthenium(II) Photosensitizer Targeting New Delhi Metallo-β-lactamase 1” (Journal of the American Chemical Society, 2025).
Several values for one entry are separate records, joined by “and”; a condition that tells them apart may be missing. Equal entries are not always repeated. Entries after “also recorded” stand apart in the source; their conditions may differ. Where two headings read alike, the source gives them in different places.

Tests used:
RAW264.7 = conditions: RAW
NDM-1 [1] = target: T1, NDM-1 (Klebsiella pneumoniae, UniProt C7C422); assay type: biochemical; conditions: mixture of NDM-1 and BSA, 0-1000 μM
Method: 1.8 Protein degradation via SDS-PAGE […]
were made at 10 mM in DMSO and then diluted to the appropriate concentration (1 mM – 10 µM) in 50 mM HEPES pH 7.5. The enzyme stocks (10 µM) were made up in 50 mM HEPES pH 7.5. The compound and enzyme stocks were mixed 1:1 and then pre -incubated for 10 min […]
‘light’ conditions the samples were transferred to a 96 well plate to provide irradiation. For a […]
(208 s, 96 mW cm-2). For a dose of 60 J cm-2 the plate was irradiated immediately (624 s, 96 […]
An aliquot of each sample was mixed with SDS-sample buffer (NuPAGE® LDS Sample buffer 4x) and heated to 95°C for 3 min. The samples were loaded on to the gel (NuPAGE® 4-12% Bis-tris gel) and run at 200V/125 mA for 30 min (1 gel per Gel box) or 60 min (2 gels per Gel box). SDS-PAGE gels were imaged using a Cytiva Amersham ImageQuant™ 800.
Densitometry of gel bands was measured and processed using Fiji (ImageJ).
1.8.3 BSA+NDM-1 selectivity experiment […]
nm, 20 J cm-2). Lane 1: Ladder; Lane 2: NDM-1 – no compound control (dark); Lane 3: BSA – no compound control (dark); Lane 4: NDM-1 + BSA - no compound control (dark); Lane 5: NDM-1 + BSA + 1 eq. compound (dark); Lane 6: NDM-1 + BSA + 10 eq. compound (dark); Lane 7: NDM-1 + BSA + 100 eq. compound (dark); Lane 8: NDM-1 + BSA - no compound control (light); Lane 9: NDM-1 + BSA + 1 eq. compound (light); Lane 10: NDM-1 + BSA + 10 eq. compound (light); Lane 11: NDM-1 + BSA + 100 eq. compound (light). […]
the dark (left) and under light irradiation (450 nm, 20 J cm-2).

NDM-1 [2] = target: T1, NDM-1
Method: In addition, intact mass spectrometry was performed on the samples prepared for SDS-PAGE.

NDM-1 [3] = target: T1, NDM-1; remark: listed apart in the source
Method: 1.4.1 Differential Scanning Fluorimetry (DSF)
DSF was performed using the Applied Biosystems QuantStudio 5 thermal cycler (Thermo
Fisher Scientific). Results were analysed and Tm determined with the Applied Biosystems
Protein Thermal Shift Software v1.4 and Tm values determined by the software. DSF was
conducted in sealed MicroAmp Optical 384-Well Reaction Plates (Thermo Fisher Scientific).
at a temperature ramp rate of 0.03 °C/s. For compound-protein interaction studies, a final
containing 5X SYPRO Orange (Thermo Fisher Scientific), 50 mM HEPES and 5%(v/v)
DMSO-d6. The final reaction volume was 20 µL per well. All DMSO compound stocks used
for DSF experiments were freshly prepared from solid stocks. All DSF measurements were
carried out in triplicate and the Tm reported is the mean value and the error is the standard
deviation. For all compounds tested, a no protein control run was included to see potential
changes in fluorescence resulting from a compound-dye interaction.

NDM-1 in E. coli NDM-1 = NDM-1 in E. coli NDM-1 (Klebsiella pneumoniae, UniProt C7C422); conditions: E. coli NDM-1, 450 nm, 60 J cm^-2
Method: shaking at 180 rpm for 18 hours. The overnight suspensions were subcultured (1:100) in fresh LB and incubated to yield an OD600 of 0.55-0.60. The were harvested and pelleted at 3500  g for 15 minutes at 4 °C. The pellets were washed with PBS and pelleted again under the same
conditions. The bacteria were then stored as pellets at 4 C until required for the assay and to
be used within 5 hours. To prepare the bacteria fo r the assay, a pellet was resuspended in an
adjusted volume of fresh PBS to achieve an OD600 ≈ 5.0 and then kept at 4 C for 1 hr before
being used. The bacteria were then diluted to OD600 ≈ 2.0 in fresh PBS and used immediately.
inhibitor control, and one row of Bacteria Buffer B (50 µL) which served as a no-bacteria
control (providing five rows in total). Bacteria stock (OD600 ≈ 2.0, 40 µL, final concentration
of bacteria in well = OD600 ≈ 0.8) was added to each well of the first four rows, the plate was
sealed, and the samples then pre-incubated for 60 min under either ‘dark’ or ‘light’ conditions
Under ‘dark’ conditions, the plate was left sealed in a
substrate in well = 100 µM) was conducted manually and then the plate immediately resealed
substrate had been completely consumed. Method conditions are as follows: cycle time = 100

E. coli empty = conditions: dark and light samples equivalent
HDAC1 = HDAC1 (Homo sapiens, UniProt Q13547); experiment: HDAC1 deacetylation assay (H3K9Ac, mass spectrometry); conditions: 100 µM compound, 3 hours, 37°C
Method: 1.7.1 HDAC1 Assay conditions:
The results of the assay were analysed using HRMS.
HDAC1 was included (-HDAC1).

[4] = organic photosensitizers; cited from earlier work

T1 sequence (C7C422 31-270 limits assumed): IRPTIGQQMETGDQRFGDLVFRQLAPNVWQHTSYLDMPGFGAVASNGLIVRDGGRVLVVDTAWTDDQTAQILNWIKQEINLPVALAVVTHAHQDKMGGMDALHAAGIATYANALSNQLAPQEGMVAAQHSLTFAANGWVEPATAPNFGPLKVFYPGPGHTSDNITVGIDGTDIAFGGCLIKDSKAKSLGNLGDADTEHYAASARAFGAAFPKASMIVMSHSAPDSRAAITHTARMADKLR
Sequence of HDAC1 (Q13547 whole entry, species assumed): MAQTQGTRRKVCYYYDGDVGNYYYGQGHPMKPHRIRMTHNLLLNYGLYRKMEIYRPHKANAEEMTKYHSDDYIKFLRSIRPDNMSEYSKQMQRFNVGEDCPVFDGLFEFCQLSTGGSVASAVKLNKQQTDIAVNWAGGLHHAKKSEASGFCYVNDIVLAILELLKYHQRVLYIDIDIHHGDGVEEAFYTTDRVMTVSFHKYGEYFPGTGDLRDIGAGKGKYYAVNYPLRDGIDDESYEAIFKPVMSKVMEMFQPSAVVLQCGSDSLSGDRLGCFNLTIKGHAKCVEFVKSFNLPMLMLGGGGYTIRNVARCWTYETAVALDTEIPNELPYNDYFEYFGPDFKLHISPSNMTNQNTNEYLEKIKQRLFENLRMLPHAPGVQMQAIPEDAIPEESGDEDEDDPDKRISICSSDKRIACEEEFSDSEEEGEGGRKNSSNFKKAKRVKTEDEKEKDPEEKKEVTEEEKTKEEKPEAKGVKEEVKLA
Sequence of NDM-1 in E. coli NDM-1 (C7C422 29-270 limits assumed): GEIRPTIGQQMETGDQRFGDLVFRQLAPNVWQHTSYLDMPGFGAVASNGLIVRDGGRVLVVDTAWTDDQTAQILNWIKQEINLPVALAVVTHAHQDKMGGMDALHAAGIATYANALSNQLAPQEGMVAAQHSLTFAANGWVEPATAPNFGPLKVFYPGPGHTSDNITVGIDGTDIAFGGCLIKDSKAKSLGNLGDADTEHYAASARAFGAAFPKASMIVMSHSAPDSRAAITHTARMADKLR

**Q.** For CN[C@@H]1C[C@H]2O[C@@](C)([C@@H]1OC)n1c3ccccc3c3c4c(c5c6ccccc6n2c5c31)C(=O)NC4 [Staurosporine], which LD50 (HCT116; HCT116, 24 h) is on record?
**A.** 0.08 µM

**Q.** What about the LD50 (HCT116; HCT116, 48 h) of the same compound?
**A.** 0.02 µM

**Q.** And the LD50 (HEK293T; 24 h)?
**A.** 0.07 µM

**Q.** And the LD50 (HEK293T; 48 h)?
**A.** 0.01 µM

**Q.** What about the LD50 (HaCaT; 24 h) of the same compound?
**A.** 0.05 µM

**Q.** And the LD50 (HaCaT; 48 h)?
**A.** 0.01 µM

**Q.** And the LD50 (HeLa; 24 h)?
**A.** 0.05 µM

**Q.** What about the LD50 (HeLa; 48 h) of the same compound?
**A.** 0.02 µM

**Q.** What about the LD50 (HepG2; HepG2, 24 h) of the same compound?
**A.** 0.3 µM

**Q.** What about the LD50 (HepG2; HepG2, 48 h) of the same compound?
**A.** 0.09 µM

**Q.** What about the LD50 (RAW264.7; 24 h) of the same compound?
**A.** 0.03 µM

**Q.** What about the LD50 (RAW264.7; 48 h) of the same compound?
**A.** 0.01 µM

**Q.** And the LD50 (hTERT RPE-1; RPE1, 24 h)?
**A.** 0.01 µM

**Q.** And the LD50 (hTERT RPE-1; RPE1, 48 h)?
**A.** 0.01 µM

**Q.** Which “Degradation of NDM-1 vs BSA (band intensity)” value (NDM-1 [1]; dark) does the source give for “[Ru(2,2'-bipyridine)2(1-(4-(3-aminophenyl)pyridine-2,6-dicarboxylic acid)-imidazo[4,5,f][1,10]phenanthroline)](PF6)2 [Ru1]” here?
**A.** Both proteins were unaffected

**Q.** And the “Degradation of NDM-1 vs BSA (band intensity)” value (NDM-1 [1]; light 450 nm, 20 J cm^-2)?
**A.** only NDM-1 was selectively modified and degraded; also recorded: Selective degradation of NDM-1 over BSA

**Q.** What about the “Modification of NDM-1 (intact mass)” value (NDM-1 [2]; 100 equiv, without irradiation) of the same compound?
**A.** no change

**Q.** And the “Modification of NDM-1 (intact mass)” value (NDM-1 [2]; one equivalent, light 450 nm, 20 J cm^-2)?
**A.** considerable modification to the protein

**Q.** What about the “K d,app from DSF (ΔT vs concentration)” value (NDM-1 [3]; apparent Kd) of the same compound?
**A.** 7.4 µM

**Q.** What about the “Change in melting temperature (ΔT) of NDM-1” value (shortened to “Change … (ΔT) of NDM-1”) (NDM-1 [3]; compound 4 μM) of the same compound?
**A.** –3.9 °C

**Q.** And the “Change … (ΔT) of NDM-1” value (NDM-1 [3]; compound 16 μM)?
**A.** –6.8 °C

**Q.** And the “Change … (ΔT) of NDM-1” value (NDM-1 [3]; compound 63 μM)?
**A.** –13 °C

**Q.** What about the “Effect on melting temperature of NDM-1” value (NDM-1 [3]; in words) of the same compound?
**A.** destabilize the protein in a dose-dependent manner

**Q.** And the “Fold improvement in potency, light vs dark” value (NDM-1 in E. coli NDM-1)?
**A.** 30 fold

**Q.** And the MIC (E. coli empty)?
**A.** >160 µM

**Q.** And the MIC (E. coli NDM-1; E. coli NDM-1, dark and light samples equivalent)?
**A.** >160 µM

**Q.** What about the “Fold change in Meropenem MIC” value (E. coli NDM-1; compound 5 μM, dark) of the same compound?
**A.** 0 fold

**Q.** What about the “Fold change in Meropenem MIC” value (E. coli NDM-1; compound 5 μM, light 450 nm, 60 J cm^-2) of the same compound?
**A.** 0.66 fold

**Q.** What about the “Fold change in Meropenem MIC” value (E. coli NDM-1; compound 10 μM, dark) of the same compound?
**A.** 0 fold

**Q.** What about the “Fold change in Meropenem MIC” value (E. coli NDM-1; compound 10 μM, light 450 nm, 60 J cm^-2) of the same compound?
**A.** 0.66 fold

**Q.** And the “Fold change in Meropenem MIC” value (E. coli NDM-1; compound 20 μM, dark)?
**A.** 0.66 fold

**Q.** What about the “Fold change in Meropenem MIC” value (E. coli NDM-1; compound 20 μM, light 450 nm, 60 J cm^-2) of the same compound?
**A.** 2.0 fold

**Q.** And the “Fold change in Meropenem MIC” value (E. coli NDM-1; compound 40 μM, dark)?
**A.** 0.66 fold

**Q.** What about the “Fold change in Meropenem MIC” value (E. coli NDM-1; compound 40 μM, light 450 nm, 60 J cm^-2) of the same compound?
**A.** 5.3 fold

**Q.** And the “Fold change in Meropenem MIC” value (E. coli NDM-1; compound 80 μM, dark)?
**A.** 2.6 fold

**Q.** And the “Fold change in Meropenem MIC” value (E. coli NDM-1; compound 80 μM, light 450 nm, 60 J cm^-2)?
**A.** 19 fold

**Q.** What about the “Fold change in Meropenem MIC” value (E. coli NDM-1; compound 160 μM, dark) of the same compound?
**A.** 9 fold and 9.3 fold

**Q.** What about the “Fold change in Meropenem MIC” value (E. coli NDM-1; compound 160 μM, light 450 nm, 60 J cm^-2) of the same compound?
**A.** 53 fold

**Q.** What about the “Inhibition of HDAC1” value (HDAC1) of the same compound?
**A.** do not inhibit; also recorded: no off-target inhibition

**Q.** With C=CC1=C(C)c2cc3[nH]c(cc4nc(cc5[nH]c(cc1n2)c(C)c5CCC(=O)O)C(CCC(=O)O)=C4C)c(C)c3C=C [protoporphyrin IX] as the compound, how does the Excited state lifetime [4] read?
**A.** 13 ns
